A short description of the data set: Metabolic stability in human liver microsomes. As to conditions: substrate 1 μM, NADPH 1 mM, 37° C., 0-45 min; for microsomal CLint at 1 μM / half-life at 1 μM: human, microsomes; for microsomal CLint at 1 μM: pH 7.4, CLint; for half-life at 1 μM: pH 7.4, t1/2, pooled human liver microsomes 0.5 mg/mL. As to the method: Pooled human liver microsomes were purchased from a commercial supplier. Microsomes were stored at −80° C. prior to use. […] A minus cofactor control incubation was included for each test compound where 0.1 M phosphate buffer pH 7.4 was added instead of NADPH (minus NADPH). Two control compounds (dextromethorphan and verapamil) were included with each test compound. All incubations were performed individually for each test compound. […] The reactions were stopped by transferring incubate into acetonitrile at the appropriate time points, in a 1:3 ratio. The termination plates were then centrifuged at 3,000 rpm for 20 min at 4° C. to precipitate the protein.
From a plot of ln peak area ratio (test compound peak area/internal standard peak area) against time, the gradient of the line was determined.
Elimination rate constant (k)=(−gradient)
where V=Incubation volume (μL)/Microsomal protein (mg).
In general terms: Liver microsomes are vesicles of endoplasmic reticulum, rich in cytochrome P450 enzymes.

[1] abbreviates: pooled human liver microsomes 0.5 mg/mL.

Several values for one entry are separate records, joined by “and”; a condition that tells them apart may be missing. Identical values can stand only once. Counter-ions that a name gives are not always drawn.

Consider eight compounds from patent US20240294460A1, “DEUTERATED ANALOGS AND DERIVATIVES OF 4-BROMO-2,5-DIMETHOXYPHEN[…] USES THEREOF” (Terran Biosciences Inc., priority 2021, published 2024).

Broadly, the microsomal CLint is the rate of metabolic loss divided by the concentration. Read a low microsomal CLint as slow turnover. The term half-life denotes the time needed for the level to fall by half in the phase considered. In turn, `Cl.[2H]C([2H])([2H])Oc1cc(CCN)c(OC)cc1Br` [2-(4-Bromo-2-methoxy-5-(methoxy-d3)phenyl)ethan-1-amine hydrochloride] registered a half-life at 1 μM of 2.5 h. The compound also had a microsomal CLint at 1 μM under setting [1] of 9.22 µL/min/mg.
As to `Cl.[2H]C([2H])([2H])Oc1cc(C([2H])([2H])C([2H])([2H])N)c(OC)cc1Br` [2-(4-bromo-2-methoxy-5-(methoxy-d3)phenyl)ethan-1,1,2,2-d4-1-amine hydrochloride], the half-life at 1 μM was found to be 2.2 h. Under setting [1], this compound came in with a microsomal CLint at 1 μM of 10.5 µL/min/mg.
As for `Cl.[2H]C([2H])(N)Cc1cc(OC([2H])([2H])[2H])c(Br)cc1OC` [2-(4-bromo-2-methoxy-5-(methoxy-d3)phenyl)ethan-1,1-d2-1-amine hydrochloride], the half-life at 1 μM is 2.12 h. Besides, under setting [1], the microsomal CLint at 1 μM is 10.9 µL/min/mg.
In turn, `Cl.[2H]C([2H])([2H])Oc1cc(Br)c(OC)cc1C([2H])([2H])C([2H])([2H])N` [2-(4-bromo-5-methoxy-2-(methoxy-d3)phenyl)ethan-1,1,2,2-d4-1-amine hydrochloride] registered a half-life at 1 μM of 1.95 h. Besides, the intrinsic clearance (microsomal CLint) at 1 μM under setting [1] was 11.9 µL/min/mg.
For `Cl.[2H]C([2H])(N)Cc1cc(OC)c(Br)cc1OC([2H])([2H])[2H]` [2-(4-bromo-5-methoxy-2-(methoxy-d3)phenyl)ethan-1,1-d2-1-amine hydrochloride] the same measures were 1.87 h and 12.4 µL/min/mg.
For `Cl.[2H]C([2H])([2H])Oc1cc(Br)c(OC)cc1CCN` [2-(4-bromo-5-methoxy-2-(methoxy-d3)phenyl)ethan-1-amine hydrochloride] the same measures were 1.27 h and 18.2 µL/min/mg.
For `COc1cc(CCN)c(OC)cc1Br` [2C-B HCl salt, 4-bromo-2,5-dimethoxyphenethylamine, reference compound], the half-life at 1 μM was found to be 2.42 h. Under setting [1], the intrinsic clearance (microsomal CLint) at 1 μM amounted to 9.56 µL/min/mg.
`COc1ccc2c(c1)[C@]13CCCC[C@@H]1[C@H](C2)N(C)CC3` [dextromethorphan, reference compound] gave a half-life at 1 μM of 0.452 h. Under setting [1], the microsomal CLint at 1 μM is 51.2 µL/min/mg; the CLint was 53.0 μL/min/mg protein and 55.0 μL/min/mg protein; the t1/2 was 0.437 h and 0.42 h.
